Experimental data as given in patent US10626144B2, “Peptide derivatives and uses thereof” (Nosopharm, priority 2014, dated 2020).
Numbered stars: 1 amine (or outer) side, 2 acyl side, 3 side chain; on linkers, the order of the positions; unused ones are H or OH. Square brackets hold non-standard residues; d marks the D form. Peptide text beside a SMILES is read from it. * marks the point of attachment. X3 = NC[C@H](OC(=O)C(F)(F)F)[C@H](N[*:1])C(=O)[*:2]; Phe(3,4-(OMe)2) = COc1ccc(C[C@H](N)C(=O)O)cc1OC; Phe(4-CONH2) = NC(=O)c1ccc(C[C@H](N)C(=O)O)cc1; Pro(trans-4-F) = O=C(O)[C@@H]1C[C@@H](F)CN1; Abu(4,4,4-F3) = N[C@@H](CC(F)(F)F)C(=O)O; Phe(4-CN) = N#Cc1ccc(C[C@H](N)C(=O)O)cc1; Phe(2-CN) = N#Cc1ccccc1C[C@H](N)C(=O)O; Phe(2-Cl) = N[C@@H](Cc1ccccc1Cl)C(=O)O; Dab(3S-OH) = NC[C@H](O)[C@H](N)C(=O)O; Phe(2-F) = N[C@@H](Cc1ccccc1F)C(=O)O; 2Pal = N[C@@H](Cc1ccccn1)C(=O)O; ΔZArg = N=C(N)NCC/C=C(\N)C(=O)O; Lys(Me) = CNCCCC[C@H](N)C(=O)O; aThr = C[C@H](O)[C@H](N)C(=O)O; dOrn = NCCC[C@@H](N)C(=O)O; Orn = NCCC[C@H](N)C(=O)O; Pra = C#CC[C@H](N)C(=O)O; Dab = NCC[C@H](N)C(=O)O; NH(CH2)4NH2 = NCCCCN*

Columns and labels:
Assay in all cases: MIC, broth microdilution (CLSI), reference strain
Settings in all cases: CAMHB
[1] = test system: Pseudomonas aeruginosa ATCC 27853
[2] = test system: Escherichia coli ATCC 25922
[3] = test system: Staphylococcus aureus ATCC 13709
[4] = test system: Acinetobacter baumannii ATCC 19606

Row | SMILES | Pa: MIC Pseudomonas aeruginosa ATCC 27853 [1] | Ec: MIC Escherichia coli ATCC 25922 [2] | Sa: MIC Staphylococcus aureus ATCC 13709 [3] | Ab: MIC Acinetobacter baumannii ATCC 19606 [4]
1 | N=C(N)NCC/C=C(\NC(=O)[C@H](CCCCN)NC(=O)[C@H](Cc1ccccc1F)NC(=O)[C@@H]1CCCN1C(=O)[C@@H](CCCN)NC(=O)CNC(=O)[C@H](CCN)NC(=O)[C@@H](NC(=O)[C@@H](N)CCCCN)[C@@H](O)CN)C(=O)O [21.4] (H-K[Dab(3S-OH)][Dab]G[dOrn]P[Phe(2-F)]K[ΔZArg]-OH) | − (>32 μg/mL) | ++ (≤8 μg/mL) | ++ (≤8 μg/mL) | − (>32 μg/mL)
2 | N=C(N)NCC/C=C(\NC(=O)[C@H](CCCCN)NC(=O)[C@H](Cc1cnc[nH]1)NC(=O)[C@@H]1CCCN1C(=O)[C@@H](CCCN)NC(=O)CNC(=O)[C@@H](NC(=O)[C@@H](NC(=O)[C@@H](N)CCCCN)[C@@H](O)CN)[C@@H](O)CN)C(=O)N[C@H](CCCCN)C(=O)NCCCCN [22.1] (H-K[Dab(3S-OH)][Dab(3S-OH)]G[dOrn]PHK[ΔZArg][dK]-{NH(CH2)4NH2}) | ++ (≤8 μg/mL) | ++ (≤8 μg/mL) | ++ (≤8 μg/mL) | + (≤32 μg/mL)
3 | N#Cc1ccc(C[C@H](NC(=O)[C@@H]2CCCN2C(=O)[C@@H](CCCN)NC(=O)CNC(=O)[C@@H](NC(=O)[C@@H](NC(=O)[C@@H](N)CCCCN)[C@@H](O)CN)[C@@H](O)CN)C(=O)N[C@@H](CCCCN)C(=O)N/C(=C\CCNC(=N)N)C(=O)O)cc1 [22.38] (H-K[Dab(3S-OH)][Dab(3S-OH)]G[dOrn]P[Phe(4-CN)]K[ΔZArg]-OH) | − (>32 μg/mL) | ++ (≤8 μg/mL) | ++ (≤8 μg/mL) | − (>32 μg/mL)
4 | N=C(N)NCC/C=C(\NC(=O)[C@@H](CCCCN)NC(=O)[C@H](Cc1cnc[nH]1)NC(=O)[C@@H]1CCCN1C(=O)[C@@H](CCCN)NC(=O)CNC(=O)[C@@H](NC(=O)[C@@H](NC(=O)[C@@H](N)CCCCN)[C@@H](O)CN)[C@@H](O)CN)C(=O)N[C@@H](CCCCN)C(=O)NCCCCN [22.11] (H-K[Dab(3S-OH)][Dab(3S-OH)]G[dOrn]PH[dK][ΔZArg]K-{NH(CH2)4NH2}) | + (≤32 μg/mL) | ++ (≤8 μg/mL) | ++ (≤8 μg/mL) | − (>32 μg/mL)
5 | CC(=O)NCC[C@H](NC(=O)[C@@H](NC(=O)[C@@H](N)CCCCN)[C@@H](O)CN)C(=O)NCC(=O)N[C@H](CCCN)C(=O)N1CCC[C@H]1C(=O)N[C@@H](Cc1cnc[nH]1)C(=O)N[C@@H](CCCCN)C(=O)N/C(=C\CCNC(=N)N)C(N)=O [21.3] (H-K[Dab(3S-OH)][Dab](Ac)G[dOrn]PHK[ΔZArg]-NH2) | − (>32 μg/mL) | − (>32 μg/mL) | ++ (≤8 μg/mL) | − (>32 μg/mL)
6 | C[C@H](O)[C@H](NC(=O)[C@H](CCN)NC(=O)[C@@H](N)CCCCN)C(=O)NCC(=O)N[C@H](CCCN)C(=O)N1CCC[C@H]1C(=O)N[C@@H](Cc1cnc[nH]1)C(=O)N[C@@H](CCCCN)C(=O)N/C(=C\CCNC(=N)N)C(=O)N[C@@H](CCCCN)C(=O)NCCCCN [15.1] (H-K[Dab][aThr]G[dOrn]PHK[ΔZArg]K-{NH(CH2)4NH2}) | − (>32 μg/mL) | − (>32 μg/mL) | + (≤32 μg/mL) | − (>32 μg/mL)

Other lines, results leading:

Row | Pa: MIC Pseudomonas aeruginosa ATCC 27853 [1] | Ec: MIC Escherichia coli ATCC 25922 [2] | Sa: MIC Staphylococcus aureus ATCC 13709 [3] | Ab: MIC Acinetobacter baumannii ATCC 19606 [4] | SMILES
7 | − (>32 μg/mL) | − (>32 μg/mL) | − (>32 μg/mL) | − (>32 μg/mL) | C[C@H](NC(=O)[C@@H](NC(=O)[C@@H](N)CCCCN)[C@@H](O)CN)C(=O)NCC(=O)N[C@H](CCCN)C(=O)N1CCC[C@H]1C(=O)N[C@@H](Cc1ccccc1C#N)C(=O)N[C@@H](CCCCN)C(=O)N/C(=C\CCNC(=N)N)C(=O)O [24.81] (H-K[Dab(3S-OH)]AG[dOrn]P[Phe(2-CN)]K[ΔZArg]-OH)
8 | − (>32 μg/mL) | + (≤32 μg/mL) | + (≤32 μg/mL) | − (>32 μg/mL) | C#CC[C@H](NC(=O)[C@@H](NC(=O)[C@@H](N)CCCCN)[C@@H](O)CN)C(=O)NCC(=O)N[C@H](CCCN)C(=O)N1CCC[C@H]1C(=O)N[C@@H](Cc1cnc[nH]1)C(=O)N[C@@H](CCCCN)C(=O)N/C(=C\CCNC(=N)N)C(=O)O [223.1] (H-K[Dab(3S-OH)][Pra]G[dOrn]PHK[ΔZArg]-OH)
9 | − (>32 μg/mL) | ++ (≤8 μg/mL) | ++ (≤8 μg/mL) | − (>32 μg/mL) | N=C(N)NCC/C=C(\NC(=O)[C@H](CCCCN)NC(=O)[C@H](CC(F)(F)F)NC(=O)[C@@H]1CCCN1C(=O)[C@@H](CCCN)NC(=O)CNC(=O)[C@H](CCCN)NC(=O)[C@@H](NC(=O)[C@@H](N)CCCCN)[C@@H](O)CN)C(=O)O [211.8] (H-K[Dab(3S-OH)][Orn]G[dOrn]P[Abu(4,4,4-F3)]K[ΔZArg]-OH)
10 | − (>32 μg/mL) | + (≤32 μg/mL) | ++ (≤8 μg/mL) | − (>32 μg/mL) | N=C(N)NCC/C=C(\NC(=O)[C@H](CCCCN)NC(=O)[C@H](Cc1cnc[nH]1)NC(=O)[C@@H]1CCCN1C(=O)[C@@H](CCCN)NC(=O)CNC(=O)[C@@H](NC(=O)[C@@H](NC(=O)[C@@H](N)CCCCN)[C@H](CN)OC(=O)C(F)(F)F)[C@@H](O)CN)C(=O)N[C@@H](CCCCN)C(=O)NCCCCN [32.1] (H-K[X3][Dab(3S-OH)]G[dOrn]PHK[ΔZArg]K-{NH(CH2)4NH2})
11 | − (>32 μg/mL) | + (≤32 μg/mL) | ++ (≤8 μg/mL) | − (>32 μg/mL) | C[C@H](NC(=O)[C@@H](NC(=O)[C@@H](N)CCCCN)[C@@H](O)CN)C(=O)NCC(=O)N[C@H](CCCN)C(=O)N1CCC[C@H]1C(=O)N[C@@H](Cc1ccccc1Cl)C(=O)N[C@@H](CCCCN)C(=O)N/C(=C\CCNC(=N)N)C(=O)O [24.80] (H-K[Dab(3S-OH)]AG[dOrn]P[Phe(2-Cl)]K[ΔZArg]-OH)
12 | − (>32 μg/mL) | − (>32 μg/mL) | + (≤32 μg/mL) | − (>32 μg/mL) | C[C@H](NC(=O)[C@@H](NC(=O)[C@@H](N)CCCCN)[C@@H](O)CN)C(=O)NCC(=O)N[C@H](CCCN)C(=O)N1CCC[C@H]1C(=O)N[C@H](C(=O)N[C@@H](CCCCN)C(=O)N/C(=C\CCNC(=N)N)C(=O)O)[C@H](C)O [24.110] (H-K[Dab(3S-OH)]AG[dOrn]P[aThr]K[ΔZArg]-OH)
13 | − (>32 μg/mL) | + (≤32 μg/mL) | ++ (≤8 μg/mL) | − (>32 μg/mL) | C[C@H](NC(=O)[C@@H](NC(=O)[C@@H](N)CCCCN)[C@@H](O)CN)C(=O)NCC(=O)N[C@H](CCCN)C(=O)N1CCC[C@H]1C(=O)N[C@@H](Cc1ccc(C(N)=O)cc1)C(=O)N[C@@H](CCCCN)C(=O)N/C(=C\CCNC(=N)N)C(=O)O [24.101] (H-K[Dab(3S-OH)]AG[dOrn]P[Phe(4-CONH2)]K[ΔZArg]-OH)
14 | − (>32 μg/mL) | ++ (≤8 μg/mL) | ++ (≤8 μg/mL) | − (>32 μg/mL) | COc1ccc(C[C@H](NC(=O)[C@@H]2CCCN2C(=O)[C@@H](CCCN)NC(=O)CNC(=O)[C@H](CCCN)NC(=O)[C@@H](NC(=O)[C@@H](N)CCCCN)[C@@H](O)CN)C(=O)N[C@@H](CCCCN)C(=O)N/C(=C\CCNC(=N)N)C(=O)O)cc1OC [211.10] (H-K[Dab(3S-OH)][Orn]G[dOrn]P[Phe(3,4-(OMe)2)]K[ΔZArg]-OH)
15 | − (>32 μg/mL) | + (≤32 μg/mL) | + (≤32 μg/mL) | − (>32 μg/mL) | C[C@H](NC(=O)[C@@H](NC(=O)[C@@H](N)CCCCN)[C@@H](O)CN)C(=O)NCC(=O)N[C@H](CCCN)C(=O)N1CCC[C@H]1C(=O)N[C@@H](Cc1ccccn1)C(=O)N[C@@H](CCCCN)C(=O)N/C(=C\CCNC(=N)N)C(=O)O [24.106] (H-K[Dab(3S-OH)]AG[dOrn]P[2Pal]K[ΔZArg]-OH)
16 | + (≤32 μg/mL) | ++ (≤8 μg/mL) | ++ (≤8 μg/mL) | + (≤32 μg/mL) | C[C@H](NC(=O)[C@@H](NC(=O)[C@@H](N)CCCCN)[C@@H](O)CN)C(=O)NCC(=O)N[C@H](CCCN)C(=O)N1C[C@H](F)C[C@H]1C(=O)N[C@@H](Cc1cnc[nH]1)C(=O)N[C@@H](CCCCN)C(=O)N/C(=C\CCNC(=N)N)C(=O)N[C@@H](CCCCN)C(=O)NCCCCN [24.4] (H-K[Dab(3S-OH)]AG[dOrn][Pro(trans-4-F)]HK[ΔZArg]K-{NH(CH2)4NH2})
17 | − (>32 μg/mL) | ++ (≤8 μg/mL) | ++ (≤8 μg/mL) | − (>32 μg/mL) | CNCCCC[C@H](N)C(=O)N[C@H](C(=O)N[C@@H](C)C(=O)NCC(=O)N[C@H](CCCN)C(=O)N1CCC[C@H]1C(=O)N[C@@H](Cc1cnc[nH]1)C(=O)N[C@@H](CCCCN)C(=O)N/C(=C\CCNC(=N)N)C(N)=O)[C@@H](O)CN [24.64] (H-[Lys(Me)][Dab(3S-OH)]AG[dOrn]PHK[ΔZArg]-NH2)
